According to patent publication US8148391B2 (Cephalon, Inc., priority 2006, dated 2012):
Where two headings read alike, the source gives them in different places. Each block holds one molecule with its values, some of them ahead of it.

Experiments:
[1] = biological target: T1, c-Met (cytoplasmic domain) (Homo sapiens, UniProt P08581); experiment: c-Met Kinase Assay (same methods as for ALK, with modifications); assay type: biochemical
T1 construct: 10 ng/mL c-Met (cytoplasmic domain, Invitrogen Corporation #PV3143); purchased Invitrogen Corporation PV3143
T1 sequence (P08581 956-1390 limits assumed): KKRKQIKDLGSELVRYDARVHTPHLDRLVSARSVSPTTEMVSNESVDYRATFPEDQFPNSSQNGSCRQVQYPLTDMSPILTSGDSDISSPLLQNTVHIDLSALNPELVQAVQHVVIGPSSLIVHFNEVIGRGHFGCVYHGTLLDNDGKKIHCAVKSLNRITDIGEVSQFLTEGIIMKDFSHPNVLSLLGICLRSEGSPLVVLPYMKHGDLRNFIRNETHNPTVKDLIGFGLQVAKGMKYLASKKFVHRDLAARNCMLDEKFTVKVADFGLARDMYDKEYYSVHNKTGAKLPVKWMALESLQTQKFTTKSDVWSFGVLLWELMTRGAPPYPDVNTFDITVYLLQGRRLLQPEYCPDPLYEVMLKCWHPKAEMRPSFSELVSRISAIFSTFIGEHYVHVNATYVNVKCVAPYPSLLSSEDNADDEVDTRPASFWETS
Procedure, shortened: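 Plates were coated with phospholipase C-γ substrate (10 μg/mL) in TBS, and the reaction was started with 10 ng/mL c-Met cytoplasmic domain and run 15 min at 37 °C. Phosphoproduct was detected with Eu-N1-labelled PT66 antibody. IC50 came from a variable-slope sigmoidal fit of percent inhibition vs log concentration.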

[2] = biological target: T2, baculovirus-expressed ALK (Homo sapiens, UniProt Q9UM73); experiment: ALK Kinase Assay (ELISA-type, time-resolved fluorescence); assay type: biochemical
T2 construct: host or cells: baculovirus expression system
T2 sequence (Q9UM73 19-1620): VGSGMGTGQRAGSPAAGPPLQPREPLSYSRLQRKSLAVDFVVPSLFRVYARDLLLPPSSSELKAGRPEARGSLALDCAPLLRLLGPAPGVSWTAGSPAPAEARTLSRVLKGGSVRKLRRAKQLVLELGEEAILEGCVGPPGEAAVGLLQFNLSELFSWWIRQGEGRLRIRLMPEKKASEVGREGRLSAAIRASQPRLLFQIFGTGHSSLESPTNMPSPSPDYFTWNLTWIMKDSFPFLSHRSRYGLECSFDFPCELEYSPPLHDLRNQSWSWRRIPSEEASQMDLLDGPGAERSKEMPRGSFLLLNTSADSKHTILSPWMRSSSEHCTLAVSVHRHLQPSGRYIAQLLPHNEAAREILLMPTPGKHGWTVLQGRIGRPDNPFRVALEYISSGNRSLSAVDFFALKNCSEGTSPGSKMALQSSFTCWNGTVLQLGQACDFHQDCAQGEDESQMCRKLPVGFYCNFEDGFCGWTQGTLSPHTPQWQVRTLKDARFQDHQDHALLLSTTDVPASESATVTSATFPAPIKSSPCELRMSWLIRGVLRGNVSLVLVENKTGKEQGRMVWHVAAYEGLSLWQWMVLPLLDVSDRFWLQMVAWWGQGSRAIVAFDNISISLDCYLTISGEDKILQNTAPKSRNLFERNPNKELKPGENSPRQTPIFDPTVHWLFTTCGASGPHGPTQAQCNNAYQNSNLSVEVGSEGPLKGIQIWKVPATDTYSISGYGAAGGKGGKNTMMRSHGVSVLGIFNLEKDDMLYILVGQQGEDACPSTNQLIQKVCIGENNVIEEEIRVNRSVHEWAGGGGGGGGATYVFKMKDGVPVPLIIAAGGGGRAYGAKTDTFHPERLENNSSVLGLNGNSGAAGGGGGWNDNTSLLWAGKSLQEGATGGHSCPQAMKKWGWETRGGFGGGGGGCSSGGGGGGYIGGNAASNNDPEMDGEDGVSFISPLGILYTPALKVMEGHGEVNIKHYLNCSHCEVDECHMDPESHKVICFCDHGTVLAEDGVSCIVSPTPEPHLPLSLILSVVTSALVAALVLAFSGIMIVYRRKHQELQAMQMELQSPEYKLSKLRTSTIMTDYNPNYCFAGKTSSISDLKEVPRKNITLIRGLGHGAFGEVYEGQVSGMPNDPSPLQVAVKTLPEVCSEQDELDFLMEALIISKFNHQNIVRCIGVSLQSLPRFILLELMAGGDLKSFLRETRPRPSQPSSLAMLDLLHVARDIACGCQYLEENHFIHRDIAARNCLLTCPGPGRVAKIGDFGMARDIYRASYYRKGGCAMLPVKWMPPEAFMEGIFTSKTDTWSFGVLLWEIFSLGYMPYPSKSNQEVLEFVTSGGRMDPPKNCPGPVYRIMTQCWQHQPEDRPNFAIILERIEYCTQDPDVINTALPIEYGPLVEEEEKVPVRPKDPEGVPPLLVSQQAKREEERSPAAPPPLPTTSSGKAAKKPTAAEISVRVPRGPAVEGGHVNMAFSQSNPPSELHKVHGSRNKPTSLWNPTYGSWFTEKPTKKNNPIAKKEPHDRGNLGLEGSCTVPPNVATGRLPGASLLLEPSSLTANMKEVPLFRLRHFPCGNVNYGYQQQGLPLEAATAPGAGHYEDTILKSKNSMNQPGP
Procedure, shortened: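 Plates coated with phospholipase C-γ substrate (10 μg/mL in TBS); reaction started with 30 ng/ml ALK and run 15 min at 37° C. Phosphorylated substrate detected with Eu-N1-labeled PT66 antibody. IC50 from sigmoidal variable-slope fit of percent inhibition vs log concentration.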

[3] = 1 μM ATP (Km level), read-out: cMet Activity (c-Met Kinase Inhibition, IC50)
[4] = 1 μM ATP (Km level), read-out: ALK Activity (ALK Kinase Inhibition, IC50)
[5] = 1 μM ATP (Km level), 10 ng/mL c-Met, read-out: cMet Activity (c-Met kinase inhibition, IC50 class)
[6] = 1 μM ATP (Km level), 30 ng/ml ALK, 37° C., 15 minutes, read-out: ALK Activity (ALK kinase inhibition, IC50 class)
[7] = c-Met kinase inhibition, 1 μM ATP (Km level), read-out: cMet Activity
[8] = ALK kinase inhibition, 1 μM ATP (Km level), read-out: ALK Activity
[9] = c-Met kinase inhibition, 1 μM ATP, read-out: cMet Activity
[10] = ALK kinase inhibition, 1 μM ATP, read-out: ALK Activity

Molecule: CNC(=O)c1ccccc1Nc1nc(Nc2ccc3c(c2)CNCCS3)ncc1Cl [Example 516, 2-[5-Chloro-2-(6,7,8,9-tetrahydro-5-thia-aza-benzocyclohepten-2-ylamino)-pyrimidin-4-ylamino]-N-methyl-benzamide]
IC50 [1, 3]: < 100 nM | IC50 [2, 4]: < 100 nM

Molecule: CCN1CCc2c(Nc3ncc(Cl)c(N[C@@H]4CCCC[C@H]4NS(C)(=O)=O)n3)ccc(OC)c2CC1 [Example 155, N-{(1R,2R)-2-[5-Chloro-2-(3-ethyl-9-methoxy-2,3,4,5-tetrahydro-1H-benzo[d]azepin-6-ylamino)-pyrimidin-4-ylamino]-cyclohexyl}-methanesulfonamide]
IC50 [1, 7]: > 10000 nM | IC50 [2, 8]: < 100 nM

Molecule: CNS(=O)(=O)c1ccccc1Nc1nc(Nc2ccc3c(c2)C2CC3CN(CCOC)C2)ncc1Cl (stereo not shown) [Example 162, 2-{5-Chloro-2-[10-(2-methoxy-ethyl)-10-aza-tricyclo[6.3.1.0*2,7*]dodeca-2,4,6-trien-4-ylamino]-pyrimidin-4-ylamino}-N-methyl-benzenesulfonamide]
IC50 [1, 7]: 1000 to 10000 nM | IC50 [2, 8]: < 100 nM

Molecule: COc1ccc(Nc2nc(Nc3cc4c(cc3OC)CN(CC3CC3)CC(=O)N4C)ncc2Cl)c(-n2cccn2)c1 [Example 748, 8-[5-Chloro-4-(4-methoxy-2-pyrazol-1-yl-phenylamino)-pyrimidin-2-ylamino]-cyclopropylmethyl-7-methoxy-1-methyl-1,3,4,5-tetrahydro-benzo[e][1,4]diazepin-2-one]
IC50 [1, 3]: > 10000 nM | IC50 [2, 4]: < 100 nM

Molecule: CCN1CCN(CC)c2cc(Nc3ncc(Cl)c(N[C@@H]4CCCC[C@H]4NS(C)(=O)=O)n3)ccc2C1=O [Example 424, N-{(1R,2R)-2-[5-Chloro-2-(1,4-diethyl-5-oxo-2,3,4,5-tetrahydro-1H-benzo[e][1,4]diazepin-8-ylamino)-pyrimidin-4-ylamino]-cyclohexyl}-methanesulfonamide]
IC50 [1, 7]: 1000 to 10000 nM | IC50 [2, 8]: < 100 nM

Molecule: COCCN1CCc2ccc(Nc3ncc(Cl)c(NC(C)(C)CNS(C)(=O)=O)n3)cc2CC1 [Example 306, N-(2-{5-Chloro-2-[3-(2-methoxy-ethyl)-2,3,4,5-tetrahydro-1H-benzo[d]azepin-7-ylamino]-pyrimidin-4-ylamino}-2-methyl-propyl)-methanesulfonamide]
IC50 [1, 7]: > 10000 nM | IC50 [2, 8]: 100 to 1000 nM

Molecule: COc1cc2c(cc1Nc1ncc(Cl)c(Nc3ccc(N4CCOCC4)cc3OC)n1)N(C)CCNC2 [Example 493, 5-Chloro-N*2*-(7-methoxy-1-methyl-2,3,4,5-tetrahydro-1H-benzo[e][1,4]diazepin-8-yl)-N*4*-(2-methoxy-4-morpholin-4-yl-phenyl)-pyrimidine-2,4-diamine]
IC50 [1, 7]: > 10000 nM | IC50 [2, 8]: < 100 nM

Molecule: CCN1CCc2ccc(Nc3ncc(C)c(Nc4ccccc4C(=O)NC)n3)cc2CC1 [Example 191, 2-[2-(3-Ethyl-2,3,4,5-tetrahydro-1H-benzo[d]azepin-7-ylamino)-5-methyl-pyrimidin-4-ylamino]-N-methyl-benzamide]
IC50 [1, 7]: < 100 nM | IC50 [2, 8]: < 100 nM

Molecule: 3-{5-Chloro-2-[3-(2-methoxy-ethyl)-2,3,4,5-tetrahydro-1H-benzo[d]azepin-7-ylamino]-pyrimidin-4-ylamino}-4-methyl-thiophene-2-carboxylic acid methylamide [Example 1363]
IC50 [1, 5]: < 100 nM | IC50 [2, 6]: < 100 nM

Molecule: CCC1C(=O)N(CC)CCc2c1ccc(Nc1ncc(Cl)c(Nc3ccccc3C(=O)NC)n1)c2OC (stereo not shown) [Example 152, 2-[5-Chloro-2-(1,3-diethyl-6-methoxy-2-oxo-2,3,4,5-tetrahydro-1H-benzo[d]azepin-7-ylamino)-pyrimidin-4-ylamino]-N-methyl-benzamide]
IC50 [1, 7]: 1000 to 10000 nM | IC50 [2, 8]: < 100 nM

Molecule: CCN1CCc2cc(Nc3ncc(Cl)c(N[C@@H]4CCCC[C@H]4NS(C)(=O)=O)n3)c(OC)cc2CC1=O [Example 251, N-{(1R,2R)-2-[5-Chloro-2-(3-ethyl-8-methoxy-2-oxo-2,3,4,5-tetrahydro-1H-benzo[d]azepin-7-ylamino)-pyrimidin-4-ylamino]-cyclohexyl}-methanesulfonamide]
IC50 [1, 7]: > 10000 nM | IC50 [2, 8]: < 100 nM

The remaining lines, values ahead:

IC50 [1, 3]: > 10000 nM | IC50 [2, 4]: < 100 nM
Molecule: COc1cc2c(cc1Nc1ncc(Cl)c(Nc3ccc(N4CC5CC4CO5)cc3OC)n1)CCN(CC(=O)N(C)C)CC2 (stereo not shown) [Example 794, 2-(7-{5-Chloro-4-[2-methoxy-4-(2-oxa-5-aza-bicyclo[2.2.1]hept-5-yl)-phenylamino]-pyrimidin-2-ylamino}-8-methoxy-1,2,4,5-tetrahydro-benzo[d]azepin-3-yl)-N,N-dimethyl-acetamide]

IC50 [1, 5]: 100 to 1000 nM | IC50 [2, 6]: < 100 nM
Molecule: CN(C)C(=O)CN1CCc2ccc(Nc3ncc(Cl)c(N[C@@H]4CCCC[C@H]4NS(C)(=O)=O)n3)cc2CC1 [Example 1371, 2-{7-[5-Chloro-4-((1R,2R)-2-methanesulfonylamino-cyclohexylamino)-pyrimidin-2-ylamino]-1,2,4,5-tetrahydro-benzo[d]azepin-3-yl}-N,N-dimethyl-acetamide]

IC50 [1, 5]: 100 to 1000 nM | IC50 [2, 6]: 100 to 1000 nM
Molecule: C#CCNC(=O)c1cccc(F)c1Nc1nc(Nc2ccc3c(c2)OCCCN3C(=O)OCCCN(C)C)ncc1Cl [Example 1427, 3-[5-Chloro-4-(2-fluoro-6-prop-2-ynylcarbamoyl-phenylamino)-pyrimidin-2-ylamino]-7,8-dihydro-6H-5-oxa-9-aza-benzocycloheptene-9-carboxylic acid 3-dimethylamino-propyl ester]

IC50 [1, 3]: 100 to 1000 nM | IC50 [2, 4]: < 100 nM
Molecule: COc1cc2c(cc1Nc1ncc(Cl)c(Nc3ccccc3S(=O)(=O)N3CC[C@H](C)C3)n1)CCN(CC(=O)N(C)C)CC2 [Example 856, 2-(7-{5-Chloro-4-[2-((S)-3-methyl-pyrrolidine-1-sulfonyl)-phenylamino]-pyrimidin-2-ylamino}-8-methoxy-1,2,4,5-tetrahydro-benzo[d]azepin-3-yl)-N,N-dimethyl-acetamide]

IC50 [1, 9]: > 10000 nM | IC50 [2, 10]: > 10000 nM
Molecule: CCN1CCNC(=O)c2ccc(Nc3ncc(Cl)c(Nc4ccccc4OCCN4CCOCC4)n3)cc21 [Example 1455, 8-{5-Chloro-4-[2-(2-morpholin-4-yl-ethoxy)-phenylamino]-pyrimidin-2-ylaminol}-1-ethyl-1,2,3,4-tetrahydro-benzo[e][1,4]diazepin-5-one]

IC50 [1, 5]: 1000 to 10000 nM | IC50 [2, 6]: < 100 nM
Molecule: COCCNC1CCc2cc(Nc3ncc(Cl)c(Nc4ccccc4S(=O)(=O)N(C)C)n3)c(OC)cc2CC1 (stereo not shown) [Example 1083, 2-{5-Chloro-2-[3-methoxy-7-(2-methoxy-ethylamino)-6,7,8,9-tetrahydro-5H-benzocyclohepten-2-ylamino]-pyrimidin-4-ylamino}-N,N-dimethyl-benzenesulfonamide]

IC50 [1, 7]: < 100 nM | IC50 [2, 8]: < 100 nM
Molecule: CNC(=O)c1cccc(F)c1Nc1nc(Nc2ccc3c(c2)N(C(C)=O)CC(=O)NC3)ncc1Cl [Example 1877, 2-[2-(1-Acetyl-3-oxo-2,3,4,5-tetrahydro-1H-benzo[e][1,4]diazepin-8-ylamino)-5-chloro-pyrimidin-4-ylamino]-3-fluoro-N-methyl-benzamide]

IC50 [1, 3]: > 10000 nM | IC50 [2, 4]: < 100 nM
Molecule: CNC(=O)CN1CCc2cc(Nc3ncc(F)c(Nc4ccc(N5CCN(C)CC5)cc4OC)n3)c(OC)cc2CC1 [Example 797, 2-(7-{5-Fluoro-4-[2-methoxy-4-(4-methyl-piperazin-1-yl)-phenylamino]-pyrimidin-2-ylamino}-8-methoxy-1,2,4,5-tetrahydro-benzo[d]azepin-3-yl)-N-methyl-acetamide]

IC50 [1, 5]: < 100 nM | IC50 [2, 6]: 100 to 1000 nM
Molecule: CNC(=O)c1cccc(F)c1Nc1nc(Nc2ccc3c(c2)-n2cccc2C(=O)CO3)ncc1Cl [Example 1268, 2-[5-Chloro-2-(4-oxo-4,5-dihydro-6-oxa-10b-aza-benz[e]azulen-9-ylamino)-pyrimidin-4-ylamino]-3-fluoro-N-methyl-benzamide]

IC50 [1, 9]: < 100 nM | IC50 [2, 10]: 100 to 1000 nM
Molecule: CCN1C(=O)C(NC(=O)C(F)(F)F)CC(C)(C)c2ccc(Nc3ncc(Cl)c(Nc4c(F)cccc4C(=O)NC)n3)cc21 (stereo not shown) [Example 1642, 2-{5-Chloro-2-[1-ethyl-5,5-dimethyl-2-oxo-3-(2,2,2-trifluoro-acetylamino)-2,3,4,5-tetrahydro-1H-benzo[b]azepin-8-ylamino]-pyrimidin-4-ylamino}-3-fluoro-N-methyl-benzamide]

IC50 [1, 3]: 1000 to 10000 nM | IC50 [2, 4]: < 100 nM
Molecule: COc1c(Nc2ncc(Cl)c(Nc3ccccc3S(=O)(=O)N3CCC(O)C3)n2)ccc2c1CCC(N1CCOCC1)CC2 (mixture of isomers) [Example 906, 1-{2-[5-Chloro-2-(1-methoxy-7-morpholin-4-yl-6,7,8,9-tetrahydro-5H-benzocyclohepten-2-ylamino)-pyrimidin-4-ylamino]-benzenesulfonyl}-pyrrolidin-3-ol]

IC50 [1, 9]: < 100 nM | IC50 [2, 10]: < 100 nM
Molecule: CNC(=O)c1scc(C)c1Nc1nc(Nc2ccc3c(c2)CN(C)C(=O)CC3)ncc1Cl [Example 1799, 3-[5-Chloro-2-(2-methyl-3-oxo-2,3,4,5-tetrahydro-1H-benzo[c]azepin-8-ylamino)-pyrimidin-4-ylamino]-4-methyl-thiophene-2-carboxylic acid methylamide]
